Earlier results as cited in paper PMC6974622, “DeepMalaria: Artificial Intelligence Driven Discovery of Potent Antiplasmodials” (Frontiers in Pharmacology, 2020).
Several values for one entry are separate records, joined by “and”; a condition that tells them apart may be missing. Equal entries are not always repeated.

Tested on: 3D7
Set-up: unit not given here
Conditions: cited from earlier work
For `COc1cc2ncnc(Nc3ccc(F)c(Cl)c3)c2cc1OCCCN1CCOCC1` [Geftinib], the 3D7 is listed as 67.6.
In the case of `CN(C)c1ccc(C(=C2C=CC(=[N+](C)C)C=C2)c2ccccc2)cc1` [Malachite green], the 3D7 is listed as 86.9.
In the case of `CNCCCC12CCC(c3ccccc31)c1ccccc12` [Maprotiline], the 3D7 is listed as 62.7.
For `COC(=O)C1=C(C)NC(C)=C(C(=O)OCCCN2CCC(c3ccccc3)(c3ccccc3)CC2)[C@H]1c1cccc([N+](=O)[O-])c1` [Niguldipine], the 3D7 is listed as 89.3.
In the case of `CN1CCN(CCCN2c3ccccc3Sc3ccc(Cl)cc32)CC1` [Prochlorperazine edisylate], the 3D7 is given as 73.3.

Same assay, conditions: repurposing dataset, 179 approved drugs; ref https://www.nature.com/articles/nchembio806; cited from earlier work
In the case of `CCOc1ccc2nc3cc(N)ccc3c(N)c2c1` [Ethacridine lactate], the 3D7 is listed as 96.2.
In the case of `O=c1[nH]cc(F)c(=O)[nH]1` [Fluorouracil], the 3D7 is given as 89.2.
In the case of `Fc1ccc(C(c2ccccc2)(c2ccccc2F)n2ccnc2)cc1` (centres unmarked) [Flutrimazole], the 3D7 is given as 85.2.
In the case of `Nc1ccn([C@@H]2O[C@H](CO)[C@@H](O)C2(F)F)c(=O)n1` [Gemcitabine], the 3D7 is listed as 75.3.
For `CN(C)c1ccc(C(=C2C=CC(=[N+](C)C)C=C2)c2ccc(N(C)C)cc2)cc1` [Gentian violet], the 3D7 is listed as 98.7.
In the case of `N=C(N)N/N=C/c1c(Cl)cccc1Cl` [Guanabenz acetate], the 3D7 is listed as 92.7.
In the case of `CCCCC(CC)CN1CN(CC(CC)CCCC)CC(C)(N)C1` (centres unmarked) [Hexetidine], the 3D7 is listed as 86.2.
For `CC[n+]1c(-c2ccccc2)c2cc(N)ccc2c2ccc(N)cc21` [Homidium bromide], the 3D7 is listed as 98.9.
In the case of `CCN(CCO)CCCC(C)Nc1ccnc2cc(Cl)ccc12` (centres unmarked) [Hydroxychloroquine], the 3D7 is given as 97.7.
In the case of `CC(=O)[C@]1(O)Cc2c(O)c3c(c(O)c2[C@@H](O[C@H]2C[C@H](N)[C@H](O)[C@H](C)O2)C1)C(=O)c1ccccc1C3=O` [Idarubicin], the 3D7 is listed as 98.9.
In the case of `CC(C(O)c1ccc(O)cc1)N1CCC(Cc2ccccc2)CC1` (centres unmarked) [Ifenprodil], the 3D7 is listed as 82.3.
For `CC[C@@H](C(=O)[C@@H](C)[C@@H](O)[C@H](C)CCc1ccc(C)c(O)c1C(=O)O)[C@H]1O[C@](CC)([C@H]2CC[C@](O)(CC)[C@H](C)O2)C[C@@H]1C` [Lasalocid A], the 3D7 is given as 98.2.
In the case of `CN(C)C(=O)C(CCN1CCC(O)(c2ccc(Cl)cc2)CC1)(c1ccccc1)c1ccccc1` [Loperamide], the 3D7 is listed as 97.7.
In the case of `Cc1cccc(C)c1OCC(=O)N[C@@H](Cc1ccccc1)[C@@H](O)C[C@H](Cc1ccccc1)NC(=O)[C@H](C(C)C)N1CCCNC1=O` [Lopinavir], the 3D7 is given as 84.9.
For `[Cl][Mn][Cl]` [Manganese chloride], the 3D7 is listed as 94.1.
For `CN1CCc2c(c3ccccc3n2Cc2ccccc2)C1` [Mebhydrolin], the 3D7 is listed as 57.1.
For `OC(c1cc(C(F)(F)F)nc2c(C(F)(F)F)cccc12)C1CCCCN1` (centres unmarked) [Mefloquine], the 3D7 is given as 97.7.
In the case of `N[C@@H](Cc1ccc(N(CCCl)CCCl)cc1)C(=O)O` [Melphalan], the 3D7 is given as 59.5.
For `S=c1[nH]cnc2nc[nH]c12` [Mercaptopurine], the 3D7 is listed as 91.8.
In the case of `CN1C[C@H](CNC(=O)OCc2ccccc2)C[C@@H]2c3cccc4c3c(cn4C)C[C@H]21` [Metergoline], the 3D7 is given as 85.9.
In the case of `CN(Cc1cnc2nc(N)nc(N)c2n1)c1ccc(C(=O)N[C@@H](CCC(=O)O)C(=O)O)cc1` [Methotrexate], the 3D7 is given as 98.4.
For `Cc1cc(C(C)(C)CC(C)(C)C)ccc1OCCOCC[N+](C)(C)Cc1ccccc1.[Cl-]` [Methylbenzethonium chloride], the 3D7 is listed as 97.7.
For `CN(C)c1ccc2nc3ccc(=[N+](C)C)cc-3sc2c1` [Methylene blue], the 3D7 is given as 98.
For `COCC(=O)O[C@]1(CCN(C)CCCc2nc3ccccc3[nH]2)CCc2cc(F)ccc2[C@@H]1C(C)C` [Mibefradil], the 3D7 is listed as 92.
In the case of `CCCCCCCCCCCCCCCCOP(=O)([O-])OCC[N+](C)(C)C` [Miltefosine], the 3D7 is given as 99.5.
For `O=C1c2c(O)ccc(O)c2C(=O)c2c(NCCNCCO)ccc(NCCNCCO)c21` [Mitoxantrone], the 3D7 is listed as 99.2 and 98.4.
For `COc1c(C)c2c(c(O)c1C/C=C(\C)CCC(=O)O)C(=O)OC2` [Mycophenolic acid], the 3D7 is listed as 92.7.
For `O=[N+]([O-])c1ccc(O)c2ncccc12` [Nitroxoline], the 3D7 is listed as 97.2.
For `COC(=O)[C@@H]1c2cc3c(c(O)c2[C@@H](O[C@@H]2O[C@@H](C)[C@H](OC)[C@@](C)(OC)[C@H]2OC)C[C@]1(C)O)C(=O)c1c(O)cc2c(c1C3=O)O[C@@H]1O[C@@]2(C)[C@H](O)[C@@H](N(C)C)[C@@H]1O` [Nogalamycin], the 3D7 is listed as 85.3.
For `O=C1[O][Pt]2([NH][C@@H]3CCCC[C@H]3[NH]2)[O]C1=O` [Oxaliplatin], the 3D7 is given as 55.4.
In the case of `CC(=O)O[C@H]1C(=O)[C@@]2(C)[C@H]([C@H](OC(=O)c3ccccc3)[C@]3(O)C[C@H](OC(=O)[C@H](O)[C@@H](NC(=O)c4ccccc4)c4ccccc4)C(C)=C1C3(C)C)[C@]1(OC(C)=O)CO[C@@H]1C[C@@H]2O` [Paclitaxel], the 3D7 is given as 84.5.
For `CC(=O)O[C@H]1C[C@@H]2CC[C@@H]3[C@H](CC[C@@]4(C)[C@H]3C[C@H]([N+]3(C)CCCCC3)[C@@H]4OC(C)=O)[C@@]2(C)C[C@@H]1[N+]1(C)CCCCC1` [Pancuronium bromide], the 3D7 is given as 52.6.
In the case of `N=C1C=CC(=C(c2ccc(N)cc2)c2ccc(N)cc2)C=C1` [Pararosaniline pamoate], the 3D7 is given as 97.3.
In the case of `Fc1ccc([C@@H]2CCNC[C@H]2COc2ccc3c(c2)OCO3)cc1` [Paroxetine], the 3D7 is listed as 85.4.
For `N=C(N)c1ccc(OCCCCCOc2ccc(C(=N)N)cc2)cc1` [Pentamidine isethionate], the 3D7 is given as 99.1.
For `C1CCC(C(CC2CCCCN2)C2CCCCC2)CC1.O=C(O)/C=C\C(=O)O` (centres unmarked) [Perhexilline maleate], the 3D7 is listed as 97.5.
For `OCCN1CCN(CCCN2c3ccccc3Sc3ccc(Cl)cc32)CC1` [Perphenazine], the 3D7 is listed as 85.6.
For `CN1CCC(=C2c3ccccc3Sc3ccccc32)CC1` [Pimethixene], the 3D7 is listed as 75.5.
In the case of `CC(=O)c1ccc2c(c1)N(CCCN1CCC(CCO)CC1)c1ccccc1S2` [Piperacetazine], the 3D7 is given as 88.5.
In the case of `O.O.O.O=C([O-])[C@H]([O-])[C@@H]([O-])C(=O)[O-].O=C([O-])[C@H]([O-])[C@@H]([O-])C(=O)[O-].[K+].[K+].[Sb+3].[Sb+3]` [Potassium antimonyl tartrate], the 3D7 is listed as 95.5.
For `COc1cc(NC(C)CCCN)c2ncccc2c1` (centres unmarked) [Primaquine], the 3D7 is given as 99.1.
In the case of `CCCC(C(=O)OCCN(CC)CC)(c1ccccc1)c1ccccc1` [Proadifen], the 3D7 is given as 85.9.
In the case of `Nc1ccc2cc3ccc(N)cc3nc2c1` [Proflavine], the 3D7 is listed as 96.2.
For `CC(C)NCC(O)c1ccc2ccccc2c1` (centres unmarked) [Pronetalol], the 3D7 is given as 95.3.
For `CCC(=O)c1ccc2c(c1)N(CC(C)N(C)C)c1ccccc1S2.O=C(O)/C=C\C(=O)O` (centres unmarked) [Propiomazine maleate], the 3D7 is listed as 77.
For `COc1ccc(C[C@H](N)C(=O)N[C@H]2[C@@H](O)[C@H](n3cnc4c(N(C)C)ncnc43)O[C@@H]2CO)cc1` [Puromycin], the 3D7 is listed as 98.9.
In the case of `CCc1nc(N)nc(N)c1-c1ccc(Cl)cc1` [Pyrimethamine], the 3D7 is given as 96.5.
In the case of `CCN(CC)CCCC(C)Nc1c2ccc(Cl)cc2nc2ccc(OC)cc12` (centres unmarked) [Quinacrine], the 3D7 is listed as 99.2.
For `C=C[C@H]1C[N@@]2CC[C@H]1C[C@@H]2[C@@H](O)c1ccnc2ccc(OC)cc12` [Quinidine], the 3D7 is listed as 88.5.
In the case of `C=C[C@H]1CN2CC[C@H]1C[C@H]2[C@H](OC(=O)OCC)c1ccnc2ccc(OC)cc12` [Quinine ethyl carbonate], the 3D7 is given as 94.5.
In the case of `C=C[C@H]1C[N@@]2CC[C@H]1C[C@H]2[C@H](O)c1ccnc2ccc(OC)cc12` [Quinine], the 3D7 is listed as 98.3.
